Test results reported in PubChem BioAssay (NCI).
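Cultured in 96-well plates, cells were exposed to test compound for 48 hours across five concentrations. Here, GI50 denotes the concentration required for 50% inhibition of growth. TGI: total growth inhibition.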

Tests used:
Assay in all cases: NCI anticancer screen, dose series, 48 h
[1] = test system: 786-0 renal
[2] = test system: A498 renal
[3] = test system: A549 NSCLC
[4] = test system: ACHN renal
[5] = test system: BT-549 breast
[6] = test system: CAKI-1 renal
[7] = test system: CCRF-CEM leukemia
[8] = test system: COLO 205 colon
[9] = test system: DU-145 prostate
[10] = test system: HCC-2998 colon
[11] = test system: HCT-116 colon
[12] = test system: HCT-15 colon
[13] = test system: HL-60(TB) leukemia
[14] = test system: HOP-62 NSCLC
[15] = test system: HOP-92 NSCLC
[16] = test system: HS 578T breast
[17] = test system: HT29 colon
[18] = test system: IGROV1 ovarian
[19] = test system: K-562 leukemia
[20] = test system: KM12 colon
[21] = test system: LOX IMVI melanoma
[22] = test system: M14 melanoma
[23] = test system: MALME-3M melanoma
[24] = test system: MCF7 breast
[25] = test system: MDA-MB-231 breast
[26] = test system: MDA-MB-435
[27] = test system: MOLT-4 leukemia
[28] = test system: NCI-H226 lung
[29] = test system: NCI-H23 lung
[30] = test system: NCI-H460 lung
[31] = test system: NCI-H522 lung
[32] = test system: NCI/ADR-RES ovarian
[33] = test system: OVCAR-3 ovarian
[34] = test system: OVCAR-4 ovarian
[35] = test system: OVCAR-5 ovarian
[36] = test system: OVCAR-8 ovarian
[37] = test system: PC-3 prostate
[38] = test system: RPMI-8226 leukemia
[39] = test system: RXF 393 renal
[40] = test system: SF-268 CNS
[41] = test system: SF-295 CNS
[42] = test system: SF-539 CNS
[43] = test system: SK-MEL-2 melanoma
[44] = test system: SK-MEL-28 melanoma
[45] = test system: SK-MEL-5 melanoma
[46] = test system: SK-OV-3 ovarian
[47] = test system: SN12C renal
[48] = test system: SNB-19 CNS
[49] = test system: SNB-75 CNS
[50] = test system: SR leukemia
[51] = test system: SW-620 colon
[52] = test system: T-47D breast
[53] = test system: TK-10 renal
[54] = test system: U251 CNS
[55] = test system: UACC-257 melanoma
[56] = test system: UACC-62 melanoma
[57] = test system: UO-31 renal

CCOC(=O)c1cc2c(n1Cc1cccc(OC)c1)-c1oncc1CCC2
GI50 [1]: 6.65 µM
TGI [1]: > 100 µM
GI50 [2]: 0.881 µM
TGI [2]: 17.6 µM
GI50 [3]: 0.915 µM
TGI [3]: > 100 µM
GI50 [4]: 4.42 µM
TGI [4]: > 100 µM
GI50 [5]: 1.61 µM
TGI [5]: > 100 µM
GI50 [6]: 2.12 µM
TGI [6]: > 100 µM
GI50 [7]: 2.17 µM
TGI [7]: > 100 µM
GI50 [8]: 0.78 µM
TGI [8]: 23.8 µM
GI50 [9]: 2.46 µM
TGI [9]: > 32.5 µM
GI50 [10]: 5.58 µM
TGI [10]: > 96.4 µM
GI50 [11]: 0.534 µM
TGI [11]: > 100 µM
GI50 [12]: 0.473 µM
TGI [12]: > 100 µM
GI50 [13]: 1.19 µM
TGI [13]: > 58.4 µM
GI50 [14]: 3.54 µM
TGI [14]: > 100 µM
GI50 [15]: 2.68 µM
TGI [15]: 49.2 µM
GI50 [16]: 1.6 µM
TGI [16]: 24.8 µM
GI50 [17]: 0.401 µM
TGI [17]: 22.8 µM
GI50 [18]: 0.968 µM
TGI [18]: > 100 µM
GI50 [19]: 0.456 µM
TGI [19]: > 100 µM
GI50 [20]: 0.58 µM
TGI [20]: > 100 µM
GI50 [21]: 2.93 µM
TGI [21]: > 100 µM
GI50 [22]: 0.693 µM
TGI [22]: > 100 µM
GI50 [23]: 0.695 µM
TGI [23]: > 100 µM
GI50 [24]: 0.385 µM
TGI [24]: > 100 µM
GI50 [25]: 4.06 µM
TGI [25]: > 100 µM
GI50 [26]: 0.153 µM
TGI [26]: 0.456 µM
GI50 [27]: 3.18 µM
TGI [27]: > 100 µM
GI50 [28]: 32.1 µM
TGI [28]: > 100 µM
GI50 [29]: 8.68 µM
TGI [29]: > 100 µM
GI50 [30]: 3.52 µM
TGI [30]: > 100 µM
GI50 [31]: 0.222 µM
TGI [31]: 0.704 µM
GI50 [32]: 0.69 µM
TGI [32]: > 21.7 µM
GI50 [33]: 0.372 µM
TGI [33]: 4.53 µM
GI50 [34]: 8.38 µM
TGI [34]: > 100 µM
GI50 [35]: 6.31 µM
TGI [35]: > 100 µM
GI50 [36]: 3.21 µM
TGI [36]: > 100 µM
GI50 [37]: 1.67 µM
TGI [37]: > 100 µM
GI50 [38]: 1.81 µM
TGI [38]: > 43 µM
GI50 [39]: 1.07 µM
TGI [39]: 6.89 µM
GI50 [40]: 9.03 µM
TGI [40]: > 100 µM
GI50 [41]: 0.616 µM
TGI [41]: > 100 µM
GI50 [42]: 1.19 µM
TGI [42]: 4.68 µM
GI50 [43]: 0.535 µM
TGI [43]: 14.9 µM
GI50 [44]: 5.55 µM
TGI [44]: > 100 µM
GI50 [45]: 0.693 µM
TGI [45]: 14.8 µM
GI50 [46]: 3.48 µM
TGI [46]: > 100 µM
GI50 [47]: 6.46 µM
TGI [47]: > 100 µM
GI50 [48]: 25.3 µM
TGI [48]: > 100 µM
GI50 [49]: 0.927 µM
TGI [49]: 6.56 µM
GI50 [50]: 0.301 µM
TGI [50]: 26.8 µM
GI50 [51]: 0.554 µM
TGI [51]: > 100 µM
GI50 [52]: 1.27 µM
TGI [52]: > 100 µM
GI50 [53]: 7 µM
TGI [53]: > 100 µM
GI50 [54]: 2.16 µM
TGI [54]: > 100 µM
GI50 [55]: 3.51 µM
TGI [55]: > 100 µM
GI50 [56]: 0.712 µM
TGI [56]: > 100 µM
GI50 [57]: 4.48 µM
TGI [57]: > 100 µM
